Results taken from US20240277684A1, “BLOCKADE OF CHEMOKINE (C-C MOTIF) RECEPTOR 2 DURING FLUID RESUSCITATION” (University of South Florida, priority 2022, published 2024).

What was measured:
hemorrhagic shock [1] = test: Example 1 first series: 30 min hemorrhagic shock, fluid resuscitation until t=90 min; format: in vivo, rat
Description: In vivo animal experiments. All procedures were performed in accordance with the National Institutes of Health Guidelines for Use of Laboratory Animals and were approved by the University of South Florida Institutional Animal Care and Use Committeee (IS00008139). Male Sprague-Dawley rats (300-400 g, Envigo, Indianapolis, IN, USA). were anesthetized with 1.7% isoflurane via nose-cone inhalation with the SomnoSuite anesthesia system (Kent Scientific, Torrington, CT, USA). […] The left femoral artery was isolated and cannulated with a 24-gauge peripheral intravenous catheter to allow for blood withdrawal, hemodynamic monitoring, drug administration, and fluid resuscitation. Hemodynamics were continuously monitored with the SurgivetV6400 blood pressure monitor (Med-Electronics, Beltsville, MD, USA), and blood pressures and heart rate were recorded at 1-10 min intervals. All animals were observed over a 10 min period to ensure hemodynamic stability before start of the experiments. All experiments were performed randomized in alternating order. […] Physiol Res 2019; 68(4):675-679; Nassoiy S P, et al., Effects of the Kv7 voltage-activated potassium channel inhibitor linopirdine in rat models of haemorrhagic shock. Clin Exp Pharmacol Physiol 2018; Nassoiy S P, et al., Kv7 voltage-activated potassium channel inhibitors reduce fluid resuscitation requirements after hemorrhagic shock in rats. J Biomed Sci 2017; 24(1):8; Bach H Ht, et al., Proteasome inhibition prolongs survival during lethal hemorrhagic shock in rats. J Trauma Acute Care Surg 2013; 74(2):499-507; Bach H Ht, et al., Chemokine (C-X-C motif) receptor 4 and atypical chemokine receptor 3 regulate vascular alpha(1)-adrenergic receptor function. Mol Med 2014; 20:435-447), with slight modifications. In brief, rats were hemorrhaged to a mean arterial blood pressure (MAP) of less than or equal to 30 mmHg for a period of 30 minutes. At the end of the HS period (t=30 min), animals were injected with either vehicle (1 mL LR) or drug in 1 mL LR, followed by fluid resuscitation with 1 mL bolus injections of LR to maintain a systolic blood pressure (SBP) of 90 mmHg or a MAP of 60 mmHg. To avoid fluid overload, bolus injections of LR were limited to 1 mL/min. […] Animals were then resuscitated until t=90 min. At t=0, 15, 30, 60 and 90 min, blood samples were obtained, and plasma prepared. Samples were stored at -70° C. until further processing. At t=90 min, animals were euthanized (isoflurane inhalation, bilateral pneumothorax).

hemorrhagic shock [2] = test: Example 2 Series 2: 60 min hemorrhagic shock, single dose, fluid resuscitation until t=300 min; format: in vivo, rat
Description: The hemorrhagic shock models were performed as described previously, with slight modifications (DeSantis A J, et al., The Chemokine (C-C Motif) Receptor 2 Antagonist INCB3284 Reduces Fluid Requirements and Protects From Hemodynamic Decompensation During Resuscitation From Hemorrhagic Shock. Crit Care Explor 2022;4(5):e0701; Bach H H, et al., Chemokine (C-X-C motif) receptor 4 and atypical chemokine receptor 3 regulate vascular alpha(1)-adrenergic receptor function. Mol Med 2014; 20:435-47; Nassoiy S P, et al., Effects of the Kv7 voltage activated potassium channel inhibitor linopirdine in rat models of hemorrhagic shock. Clin Exp Pharmacol Physiol 2018. doi: 10.1111/1440-1681.12958. PubMed PMID: 29702725; Bach H H, et al., Proteasome inhibition prolongs survival during lethal hemorrhagic shock in rats. J Trauma Acute Care Surg 2013; 74(2):499-507). In brief, anesthesia induction was performed with the animal and isoflurane-soaked gauze placed in a bell jar. After anesthesia induction, the animals were transferred to the operative field and anesthesia was maintained with 2.7% isoflurane administered via nose-cone inhalation with the SomnoSuite small animal anesthesia system (Kent Scientific Corporation, Torrington, CT, USA). […] Using a direct cut-down technique, the left femoral artery was isolated and cannulated with a 24-gauge peripheral intravenous catheter to allow for blood withdrawal, hemodynamic monitoring, drug administration, and fluid resuscitation. After catheter placement, isoflurane was decreased to 1.5%. Hemodynamics were continuously monitored with the Surgivet invasive blood pressure monitor (Med-Electronics, Beltsville, MD, USA). Blood pressures were recorded at 1-5 min intervals during the hemorrhage and resuscitation periods. Four subsequent series of experiments were performed. All experiments in each series were performed in alternating order. In all experiments animals were continuously monitored and remained under general anesthesia until euthanasia or death, as defined by asystole or loss of pulse pressure.
Series 2: Rats were hemorrhaged to a MAP of less than or equal to 30 mmHg for a period of 60 min, followed by fluid resuscitation until t=300 min as in Series 1. At the end of the hemorrhagic shock period (t=60 min), animals were injected with 1 mL of normal saline (NS) (n=6), 5 μmol/kg (n=6) INCB3284 in 1 mL NS or 1.1 μmol/kg SB 328437 (n=6) in 1 mL NS at t=60 min. At t=0 min, 60 min, 120 min, 180 min, 240 min and 300 min, blood samples (0.3 ml) were obtained and used for arterial blood gas analyses and measurements of routine laboratory parameters. At t=300 min, surviving animals were euthanized (5% isoflurane inhalation, bilateral pneumothorax).
Arterial blood gases and routine laboratory parameters. Arterial blood gases, electrolytes, creatinine, lactate, hematocrit and hemoglobin were analyzed using the Element point of care veterinary blood gas, electrolyte and critical care analyzer (Cuattro Veterinary USA, Loveland, CO, USA).

COc1ccc([C@]2(O)CC[C@@H](N3CC[C@@H](NC(=O)CNC(=O)c4cccc(C(F)(F)F)c4)C3)CC2)cn1 [INCB3284]
fluid requirements to maintain hemodynamics (hemorrhagic shock [1]; 1.1 μmol/kg at t=30 min, until t=90 min, p>0.05 vs. vehicle): 50 ± 1 mL/kg
effect on fluid requirements to maintain hemodynamics (hemorrhagic shock [1]; 1.1 μmol/kg at t=30 min, vs vehicle): did not affect fluid requirements
MAP during the observation period (hemorrhagic shock [1]; 5.5 μmol/kg at t=30 min): increased MAP at various time points
reduction of fluid requirements (hemorrhagic shock [1]; 5.5 μmol/kg at t=30 min, until t=90 min, vs vehicle): 58±11%
fluid requirements to maintain hemodynamics (hemorrhagic shock [1]; 5.5 μmol/kg at t=30 min, until t=90 min, p<0.05 vs. vehicle): 21.7 ± 6 mL/kg
median survival time (hemorrhagic shock [2]; 1.1 μmol/kg SB328437 or 5 μmol/kg INCB3284 at t=60 min): undefined
animals that survived the resuscitation period (hemorrhagic shock [2]; 1.1 μmol/kg SB328437 or 5 μmol/kg INCB3284 at t=60 min, until t=300 min, n=6): all
reduction of fluid resuscitation requirements to achieve the target MAP (hemorrhagic shock [2]; 5 μmol/kg at t=60 min, until t=220 min, p<0.05 vs. vehicle): 65%
